# Test results: patent publication US20250236901A1, “METHOD OF DETECTING A MICROORGANISM HAVING HIPPURICASE ACTIVITY” (BIOSYNTH AG, priority 2022, published 2025)
# Assays:
# Type in all cases: cell-based
# [1] = system: Streptococcus pyogenes ATCC®19615; assay: Detection of hippuricase activity with 4-HHA, 4-aminoantipyrine and oxidizing reagent; conditions: Example 6; OD600 0.5-0.6; 10 mM 4-HHA; HRP/H2O2, HRP/Glu/GOD or NaIO4
# Procedure: (§1) Streptococcus agalactiae ATCC®12386 and Streptococcus pyogenes ATCC®19615 were cultivated on Columbia Agar with sheep blood (Thermofischer PB5039A) at 37° C. for 48 h.
# (§2) Biomass of colonies were suspended in sterile 100 mM phosphate buffer pH 7.4 and the optical density OD600 was set to 0.5-0.6.
# (§3) Two hundred μL of cell suspensions were mixed with 25 μL of 100 mM 4-hydroxyhippuric acid (4-HHA, Bachem 4005059) prepared in 100 mM phosphate buffer pH adjusted to 7.4) in a microtiter plate and incubated for 80 min. at 37° C. After incubation, 20 μL of the prepared mixture (12.5×) 4-aminoantipyrine (4-AAP, Merck 06800) and horseradish peroxidase (HRP, Merck 77332), 5 μL of 100 mM H2O2 were added. The absorbance at 505 nm was recorded with a plate reader (SpektraMax M5, Molecular Devices) at room temperature and endpoint of absorbance at 505 nm was evaluated (FIG. 8A). Final concentrations for the assay were 10 mM 4-HHA, 0.5 mM 4-AAP, 4.5 U/mL HRP and 2 mM H2O2.
# (§4) Two hundred μL of cell suspension were mixed with 25 μL of 100 mM 4-hydroxyhippuric acid (4-HHA, Bachem 4005059, dissolved in 100 mM phosphate puffer pH 7.4) in microtiter plate and incubated for 1 h at 37° C. […] The absorbance at 505 nm was recorded with a plate reader and endpoint of absorbance at 505 nm was evaluated (FIG. 8B). […]
# [2] = system: Streptococcus agalactiae ATCC®12386; assay: as above; conditions: Example 6; OD600 0.5-0.6; 10 mM 4-HHA; HRP/H2O2, HRP/Glu/GOD or NaIO4
# Procedure: as §1, §2, §3, §4
# [3] = system: Campylobacter coli DSM 4689; assay: Detection of hippuricase activity with 4-HHA, 4-aminoantipyrine and oxidizing reagent (color / absorbance at 505 nm)
# Procedure: (§5) Campylobacter jejuni DSM 4688 (C. j., catalase positive), Eschericha coli (E. coli, catalase positive) and Campylobacter coli DSM 4689 (C. c., catalase positive), Streptococcus agalactiae ATCC®12386 (S. a., catalase negative) and Streptococcus pyogenes ATCC®19615 (S. p., catalase negative) were cultivated on Columbia Agar with sheep blood (Thermofischer PB5039A) at 37° C. for 48 h, both Campylobacter strains were cultivated under microaerophilic atmosphere (Oxoid, Campylgen CN0025A).
# (§6) Biomass of colonies were suspended in sterile phosphate buffer (100 mM, pH 7.4) and the optical density OD was determined and set to OD600 of 0.9.
# (§7) Two hundred μL of cell suspensions were mixed with 25 μL of 4-hydroxyhippuric acid (4-HHA, Bachem, 4005059) stock solution, prepared in 100 mM phosphate buffer pH adjusted to 7.4 in a microtiter plate (SpektraMax M5, Molecular Devices) and incubated for 70 minutes at 37° C. After incubation, 20 μL of a prepared mixture (12.5×) 4-aminoantipyrine (4-AAP, Merck 06800) and peroxidase (HRP, Merck 77332) and 5 μL of 100 mM H2O2 were added. The absorbance at 505 nm was recorded with a plate reader at room temperature. Final concentrations for the assay were 5 mM, 10 mM and 20 mM 4-HHA, 0.5 mM 4-AAP, 4.5 U/mL HRP and 2 mM H2O2.
# (§8) Biomass of colonies were suspended in sterile 100 mM phosphate buffer pH 7.4 and the optical density OD600 was set to 0.9 and then serially diluted with the same buffer to an OD600 of 0.5, 0.2 and 0.1.
# as §3, with “1 h” for “80 min.”, “and” for “and horseradish”, “temperature.” for “temperature and endpoint of absorbance at 505 nm was evaluated (FIG. 8A).”
# (§9) Biomass of colonies were suspended in sterile phosphate buffer (100 mM, pH 7.4) and the optical density OD was set to 0.9 and then serially diluted with the same buffer to an OD600 of 0.5, 0.2 and 0.1.
# (§10) Two hundred μL of cell suspension were mixed with 25 μL of 100 mM 4-hydroxyhippuric acid (4-HHA, Bachem 4005059, dissolved in 100 mM phosphate puffer pH 7.4) in microtiter plate and incubated for 1 h at 37° C. After incubation, 10 μL of the prepared mixture (25×) 4-aminoantipyrine (4-AAP, Merck 06800) and peroxidase (HRP, Merck 77332), 10 μL of 250 mM glucose (Merck, G8270) and 5 μL of glucose oxidase (GOD, Merck G2133) 50 U/mL were added. The absorbance at 505 nm was recorded with a plate reader. Final concentration of 4-HHA was 10 mM, 4-AAP was 0.5 mM, HRP was 4.5 U/mL, glucose was 10 mM and GOD was 1 U/mL.
# Biomass of colonies were suspended, a) 0.2 mL sterile 100 mM phosphate buffer pH 7.4; b) 0.1 mL sterile water (as recommended in manual), c) 0.5 mL saline solution (as recommended in manual). To ensure a proper comparability, the optical density OD600 of all cell suspensions were set to 0.2. In method a) 25 μL of 100 mM 4-hydroxyhippuric acid (4-HHA, Bachem 4005059 prepared in 100 mM phosphate buffer pH adjusted to 7.4) was added to cell suspensions. In methods b) and c), Hippurate disks and Hippurate strips were dropped in cell suspensions as recommended in manual. […]
# Eschericha coli = assay: Detection of hippuricase activity with 4-HHA, 4-aminoantipyrine, HRP and H2O2; conditions: Example 1; OD600 0.9; 5, 10, 20 mM 4-HHA, 70 min 37° C.; 0.5 mM 4-AAP, 4.5 U/mL HRP, 2 mM H2O2
# Procedure: as §5, §6, §7
# [4] = system: Campylobacter jejuni DSM 4688; assay: Detection of hippuricase activity with 4-HHA, 4-aminoantipyrine and oxidizing reagent (color / absorbance at 505 nm); conditions: for time to plateau of absorbance at 505 nm: HRP/H2O2
# Procedure: as §5, §6, §7, §8
# as §3, with “1 h” for “80 min.”, “and” for “and horseradish”, “temperature.” for “temperature and endpoint of absorbance at 505 nm was evaluated (FIG. 8A).”
# as §9, §10
# Biomass of colonies were suspended, a) 0.2 mL sterile 100 mM phosphate buffer pH 7.4; b) 0.1 mL sterile water (as recommended in manual), c) 0.5 mL saline solution (as recommended in manual). To ensure a proper comparability, the optical density OD600 of all cell suspensions were set to 0.2. In method a) 25 μL of 100 mM 4-hydroxyhippuric acid (4-HHA, Bachem 4005059 prepared in 100 mM phosphate buffer pH adjusted to 7.4) was added to cell suspensions. In methods b) and c), Hippurate disks and Hippurate strips were dropped in cell suspensions as recommended in manual. To ensure a proper comparability, all samples were incubated at 37° C. for 1 h.
# After incubation, 10 μL of the prepared mixture (25×) 4-aminoantipyrine (4-AAP, Merck 06800) and peroxidase (HRP, Merck 77332), followed with 5 μL of 100 mM H2O2 were added in samples of method a). Final concentrations for the assay were 10 mM 4-HHA, 0.5 mM 4-AAP, 4.5 U/mL HRP and 2 mM H2O2.
# [5] = system: catalase-positive samples (Campylobacter); assay: Catalase control experiment: chromogenic reaction of p-hydroxybenzoic acid with 4-AAP/HRP/H2O2 in presence of cells; conditions: 1 mM 4-HBA, 0.5 mM 4-AAP, 4.5 U/mL HRP, 1 mM H2O2; OD600 0.4 to 0.5; FIG. 2B, FIG. 9
# Procedure: In a catalase control experiment, biomass of colonies was suspended in sterile phosphate buffer (100 mM, pH 7.4) and the optical density OD was determined and then serially diluted with the same buffer to an OD600 of 0.4 to 0.5.
# One hundred to 150 μL of cell suspension were mixed with 50 to 100 μL of 100 mM phosphate puffer pH 7.4 and 50 μL of the prepared mixture (5×) 4-aminoantipyrine (4-AAP, Merck 06800, 2.5 mM), peroxidase (HRP, Merck 77332, 22.5 U/mL) and 4-hydroxybenzoic acid (4-HBA, Merck H20059, 5 mM, dissolved in 100 mM phosphate puffer pH 7.4) and 5 μL of 50 mM H2O2 were added. The absorbance at 505 nm was recorded with a plate reader (SpektraMax M5, Molecular Devices) at room temperature. Final concentrations for the assay are 1 mM 4-HBA, 0.5 mM 4-AAP, 4.5 U/mL HRP and 1 mM H2O2. (FIG. 2B)
# Two hundred μL of cell suspension were mixed with 20 μL of 100 mM phosphate puffer pH 7.4, 5 μL 50 mM and p-4-hydroxybenzoic acid (p-HBA, Merck H20059 dissolved in 100 mM phosphate puffer pH 7.4), 20 μL of mixture 4-aminoantipyridine (Merck 06800, 6.25 mM) and horseradish peroxidase (Merck 77332, 56.3 U/mL), followed by the addition of 5 μL of 50 mM H2O2. The absorbance at 505 nm was recorded with a plate reader (SpektraMax M5, Molecular Devices) at room temperature. Final concentrations for the assay are 1 mM p-4-HBA, 0.5 mM 4-AAP, 4.5 U/mL HRP and 1 mM H2O2. (FIG. 9)
# [6] = Example 1, OD600 0.9, 5, 10, 20 mM 4-HHA, 70 min 37° C., 0.5 mM 4-AAP, 4.5 U/mL HRP, 2 mM H2O2
color of sample [1],color of sample [2],"time to plateau of absorbance at 505 nm ([4]; Example 1, FIG. 2A, OD600 0.9)","color of sample [4, 6]","time to plateau of absorbance at 505 nm ([4]; Example 2, FIG. 3, OD600 value of 0.1)","color of sample ([4]; Example 2, OD600 0.1 to 0.9, 10 mM 4-HHA 1 h 37° C., HRP/2 mM H2O2)","color of sample ([4]; Example 3, OD600 0.1 to 0.9, 10 mM 4-HHA 1 h 37° C., HRP, 10 mM glucose, 1 U/mL GOD)","color of sample ([4]; Example 4 method a), OD600 0.2, 10 mM 4-HHA 1 h 37° C., HRP/2 mM H2O2, few minutes at room temperature)","color of sample ([4]; Example 5, OD600 0.1 to 1.1, 10 mM 4-HHA 1 h 37° C., 2 mM 4-AAP, 2 mM NaIO4)",SMILES,"color of sample [3, 6]","color of sample ([3]; Example 2, all OD600 values 0.1 to 0.9, 10 mM 4-HHA 1 h 37° C., HRP/2 mM H2O2)","color of sample ([3]; Example 3, all OD600 values, 10 mM 4-HHA 1 h 37° C., HRP, 10 mM glucose, 1 U/mL GOD)","color of sample ([3]; Example 4 method a), OD600 0.2, 10 mM 4-HHA 1 h 37° C., HRP/2 mM H2O2)","color of sample ([3]; Example 5, all OD600 values, 10 mM 4-HHA 1 h 37° C., 2 mM 4-AAP, 2 mM NaIO4)",color of sample (Eschericha coli),time after which the chromogenic reaction stopped (absorbance at 505 nm) [5]
colorless or slightly yellowish,pink color,about 5 minutes,robust red to pink color,about 10 minutes,robust red to pink color,robust red to pink color,significant pink color,red to pink color,"O=C(O)CNC(=O)c1ccc(O)cc1 [4-HHA, p-hydroxyhippuric acid]",colorless or slightly yellowish,colorless or slightly yellowish,colorless or slightly yellowish,slightly yellowish,colorless or slightly yellowish,colorless or slightly yellowish,
,,,,,,,,,O=C(O)c1ccc(O)cc1 [p-hydroxybenzoic acid],,,,,,,about 5 minutes
